According to patent US11136321B2, “Tricyclic compounds” (ALIGOS THERAPEUTICS, INC., priority 2019, dated 2021):

System: HBV
Test: HBV-DNA antiviral assay using HepG2.117 cells
Type: cell-based, genotype D HBV
Details: Hepatitis B virus, 72 h, intracellular HBV DNA by qPCR, 3 days incubation
Method in brief: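 HepG2.117 cells (genotype D HBV, Tet-off) seeded without doxycycline and treated for 3 days at 9 concentrations (4-fold dilutions) in 2% DMSO. Intracellular HBV DNA measured by qPCR against a standard curve, with viability from ATPlite run in parallel. EC50, EC90 and CC50 fitted relative to DMSO controls.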

`CNC(=O)c1ccc(-n2c(=O)c3c(n4ncc(Cc5ccccc5)c24)CN(C(=O)c2ccc(Br)c(Cl)c2)CC3)cc1Cl` [Compound 38, 4-[5-benzyl-12-(4-bromo-3-chloro-benzoyl)-8-oxo-2,3,7,12-tetrazatricyclo [7.4.0.0 2,6]trideca-1(9),3,5-trien-7-yl]-2-chloro-N-methyl-benzamide] showed an EC50 of at most 100 nM.

In the case of `CNC(=O)c1ccc(-n2c(=O)c3c(n4ncc(Nc5ccccc5)c24)CN(C(=O)c2ccc(Cl)c(Cl)c2)CC3)cc1` [Compound 39, 4-[5-anilino-12-(3,4-dichlorobenzoyl)-8-oxo-2,3,7,12-tetrazatricyclo [7.4.0.0 2,6]trideca-1(9),3,5-trien-7-yl]-N-methyl-benzamide], the EC50 is reported as at most 100 nM.

For `CNC(=O)c1ccc(-n2c(=O)c3c(n4ncc(Nc5ccccc5)c24)CN(C(=O)c2ccc(Br)c(Cl)c2)CC3)cc1` [Compound 40, 4-[5-anilino-12-(4-bromo-3-chloro-benzoyl)-8-oxo-2,3,7,12-tetrazatricyclo [7.4.0.0 2,6]trideca-1(9),3,5-trien-7-yl]-N-methyl-benzamide], the EC50 was at most 100 nM.

`CNC(=O)c1ccc(-n2c(=O)c3c(n4ncc(NCc5ccc(OC(F)F)cc5)c24)CN(C(=O)c2ccc(Cl)c(Cl)c2)CC3)cc1` [Compound 41, 4-[12-(3,4-dichlorobenzoyl)-5-[[4-(difluoromethoxy)phenyl]methylamino]-8-oxo-2,3,7,12-tetrazatricyclo [7.4.0.0 2,6]trideca-1(9),3,5-trien-7-yl]-N-methyl-benzamide] was tested, and the EC50 was 500 to 5000 nM.

`CNC(=O)c1ccc(-n2c(=O)c3c(n4ncc(NCc5ccccc5)c24)CN(C(=O)c2ccc(Cl)c(Cl)c2)CC3)cc1` [Compound 42, 4-[5-(benzylamino)-12-(3,4-dichlorobenzoyl)-8-oxo-2,3,7,12-tetrazatricyclo [7.4.0.0 2,6]trideca-1(9),3,5-trien-7-yl]-N-methyl-benzamide] was tested, and the EC50 was at most 100 nM.

For `CNC(=O)c1ccc(-n2c(=O)c3c(n4ncc(Cc5ccc(C#N)cc5)c24)CN(C(=O)c2ccc(Br)c(Cl)c2)CC3)cc1` [Compound 43, 4-(8-(4-bromo-3-chlorobenzoyl)-3-(4-cyanobenzyl)-5-oxo-6,7,8,9-tetrahydropyrazolo[1,5-a]pyrido[4,3-e]pyrimidin-4(5H)-yl)-N-methylbenzamide], the EC50 was at most 100 nM.

In the case of `CNC(=O)c1ccc(-n2c(=O)c3c(n4ncc(NCc5ccc(OC(F)(F)F)cc5)c24)CN(C(=O)c2ccc(Cl)c(Cl)c2)CC3)cc1` [Compound 44, 4-[12-(3,4-dichlorobenzoyl)-8-oxo-5-[[4-(trifluoromethoxy)phenyl]methylamino]-2,3,7,12-tetrazatricyclo [7.4.0.0 2,6]trideca-1(9),3,5-trien-7-yl]-N-methyl-benzamide], the EC50 is reported as 100 to 500 nM.

Work on `CNC(=O)c1ccc(-n2c(=O)c3c(n4ncc(NCc5ccc(OC(F)(F)F)cc5)c24)CN(C(=O)c2ccc(Br)c(Cl)c2)CC3)cc1` [Compound 45, 4-[12-(4-bromo-3-chloro-benzoyl)-8-oxo-5-[[4-(trifluoromethoxy)phenyl]methylamino]-2,3,7,12-tetrazatricyclo [7.4.0.0 2,6]trideca-1(9),3,5-trien-7-yl]-N-methyl-benzamide] yielded an EC50 of at most 100 nM.

Compound `CNC(=O)c1ccc(-n2c(=O)c3c(n4ncc(NCc5ccc(OC(F)F)cc5)c24)CN(C(=O)c2ccc(Br)c(Cl)c2)CC3)cc1` [Compound 46, 4-[12-(4-bromo-3-chloro-benzoyl)-5-[[4-(difluoromethoxy)phenyl]methylamino]-8-oxo-2,3,7,12-tetrazatricyclo [7.4.0.0 2,6]trideca-1(9),3,5-trien-7-yl]-N-methyl-benzamide] has an EC50 of at most 100 nM.

`CNC(=O)c1ccc(-n2c(=O)c3c(n4ncc(NCc5ccccc5)c24)CN(C(=O)c2ccc(Br)c(Cl)c2)CC3)cc1` [Compound 47, 4-[5-(benzylamino)-12-(4-bromo-3-chloro-benzoyl)-8-oxo-2,3,7,12-tetrazatricyclo [7.4.0.0 2,6]trideca-1(9),3,5-trien-7-yl]-N-methyl-benzamide] was tested, and the EC50 was at most 100 nM.

Work on `CNC(=O)c1ccc(-n2c(=O)c3c(n4ncc(Cc5ccc(C#N)cc5)c24)CN(C(=O)c2ccc(Cl)c(Cl)c2)CC3)cc1` [Compound 48, 4-[5-[(4-cyanophenyl)methyl]-12-(3,4-dichlorobenzoyl)-8-oxo-2,3,7,12-tetrazatricyclo [7.4.0.0 2,6]trideca-1(9),3,5-trien-7-yl]-N-methyl-benzamide] yielded an EC50 of at most 100 nM.

Compound `NC(=O)c1ccc(-n2c(=O)c3c(n4ncc(NCc5ccccc5)c24)CN(C(=O)c2ccc(Br)c(Cl)c2)CC3)cc1` [Compound 49, 4-[5-(benzylamino)-12-(4-bromo-3-chloro-benzoyl)-8-oxo-2,3,7,12-tetrazatricyclo [7.4.0.0 2,6]trideca-1(9),3,5-trien-7-yl] benzamide] has an EC50 of at most 100 nM.

With `NC(=O)c1ccc(-n2c(=O)c3c(n4ncc(NCc5ccccc5)c24)CN(C(=O)c2ccc(Cl)c(Cl)c2)CC3)cc1` [Compound 50, 4-[5-(benzylamino)-12-(3,4-dichlorobenzoyl)-8-oxo-2,3,7,12-tetrazatricyclo [7.4.0.0 2,6]trideca-1(9),3,5-trien-7-yl] benzamide] the EC50 was at most 100 nM.

Work on `CNC(=O)c1ccc(-n2c(=O)c3c(n4ncc(NCc5ccc(C#N)cc5)c24)CN(C(=O)c2ccc(Cl)c(Cl)c2)CC3)cc1` [Compound 51, 4-[5-[(4-cyanophenyl)methylamino]-12-(3,4-dichlorobenzoyl)-8-oxo-2,3,7,12-tetrazatricyclo [7.4.0.0 2,6]trideca-1(9),3,5-trien-7-yl]-N-methyl-benzamide] yielded an EC50 of 500 to 5000 nM.

`CNC(=O)c1ccc(-n2c(=O)c3c(n4ncc(NCc5ccc(OCC(N)=O)cc5)c24)CN(C(=O)c2ccc(Br)c(Cl)c2)CC3)cc1` [Compound 52, 4-[5-[[4-(2-amino-2-oxo-ethoxy)phenyl]methylamino]-12-(4-bromo-3-chloro-benzoyl)-8-oxo-2,3,7,12-tetrazatricyclo [7.4.0.0 2,6]trideca-1(9),3,5-trien-7-yl]-N-methyl-benzamide] showed an EC50 of 100 to 500 nM.

For `CNC(=O)c1ccc(-n2c(=O)c3c(n4ncc(NCc5ccc(OCC(N)=O)cc5)c24)CN(C(=O)c2ccc(Cl)c(Cl)c2)CC3)cc1` [Compound 53, 4-[5-[[4-(2-amino-2-oxo-ethoxy)phenyl]methylamino]-12-(3,4-dichlorobenzoyl)-8-oxo-2,3,7,12-tetrazatricyclo [7.4.0.0 2,6]trideca-1(9),3,5-trien-7-yl]-N-methyl-benzamide], the EC50 was 500 to 5000 nM.

`CNC(=O)c1ccc(-n2c(=O)c3c(n4ncc(Nc5ccc(F)cc5)c24)CN(C(=O)c2ccc(Br)c(Cl)c2)CC3)cc1` [Compound 54, 4-[12-(4-bromo-3-chloro-benzoyl)-5-(4-fluoroanilino)-8-oxo-2,3,7,12-tetrazatricyclo [7.4.0.0 2,6]trideca-1(9),3,5-trien-7-yl]-N-methyl-benzamide] was tested, and the EC50 was at most 100 nM.

For `CNC(=O)c1ccc(-n2c(=O)c3c(n4ncc(NCc5ccc(C#N)cc5)c24)CN(C(=O)c2ccc(Br)c(Cl)c2)CC3)cc1` [Compound 55, 4-[12-(4-bromo-3-chloro-benzoyl)-5-[(4-cyanophenyl)methylamino]-8-oxo-2,3,7,12-tetrazatricyclo [7.4.0.0 2,6]trideca-1(9),3,5-trien-7-yl]-N-methyl-benzamide], the EC50 was 100 to 500 nM.
